Counter-ions that a name gives are not always drawn.
Compared with C[C@@H](CO)Nc1ncc2c(n1)N(C1CCNCC1)C(=O)N(c1ccccc1Cl)C2 (as salt: hydrochloride), C[C@@H](O)[C@H](CO)Nc1ncc2c(n1)N(C)C(=O)N(c1ccccc1Cl)C2 (stereo in doubt) (as salt: hydrochloride) [Compound 1-13, 3-(2-chlorophenyl)-7-((1S,2R)-2-hydroxy-1-hydroxymethyl-propylamino)-1-methyl-3,4-dihydropyrimido-[4,5-d]pyrimidin-2(1H)-one] is lower in melting point: 244 to 248 °C for the first, 199 to 204 °C for the second.

Cc1ccccc1N1Cc2cnc(NC3CCN(Cc4ccccc4)CC3)nc2N(C)C1=O (as salt: hydrochloride) [Compound 2-9, 7-(1-benzylpiperidin-4-ylamino)-1-methyl-3-ortho-tolyl-3,4-dihydropyrimido[4,5-d]pyrimidin-2(1H)-one] and Cc1ccccc1N1Cc2cnc(NC3CCN(CCO)CC3)nc2N(C)C1=O [Compound 2-13, 7-[1-(2-hydroxyethyl)-piperidin-4-ylamino]-1-methyl-3-ortho-tolyl-3,4-dihydropyrimido[4,5-d]pyrimidin-2(1H)-one] cannot be ordered by melting point: 253 to 253.9 °C for the first, 250 to 257 °C for the second.

Cc1ccccc1N1Cc2cnc(NC3CCN(C[C@@H](O)CO)CC3)nc2N(C)C1=O (as salt: hydrochloride) [Compound 2-14, (R)-7-[1-(2,3-dihydroxypropyl)piperidin-4-ylamino]-1-methyl-3-ortho-tolyl-3,4-dihydropyrimido[4,5-d]pyrimidin-2(1H)-one] and Cc1ccccc1N1Cc2cnc(NC3CCN(CCC#N)CC3)nc2N(C)C1=O (as salt: hydrochloride) [Compound 2-15, 7-[1-(2-cyanoethyl)-piperidin-4-ylamino]-1-methyl-3-ortho-tolyl-3,4-dihydropyrimido[4,5-d]pyrimidin-2(1H)-one] cannot be ordered by melting point: 195 to 208 °C for the first, 195 to 208.5 °C for the second.

Compared with CN(C)C(=O)CN1CCC(CNc2ncc3c(n2)NC(=O)N(c2ccccc2Cl)C3)CC1 (as salt: hydrochloride) [Compound 2-19, 3-(2-chlorophenyl)-7-[(1-dimethylaminocarbonylmethylpiperidin-4-ylmethyl)amino]-3,4-dihydropyrimido[4,5-d]pyrimidin-2(1H)-one], NC(=O)CN1CCC(CNc2ncc3c(n2)NC(=O)N(c2ccccc2Cl)C3)CC1 (as salt: hydrochloride) [Compound 2-23, 3-(2-chlorophenyl)-7-[(1-aminocarbonylmethylpiperidin-4-ylmethyl)amino]-3,4-dihydropyrimido[4,5-d]pyrimidin-2(1H)-one] is higher in melting point: 210.2 to 214.4 °C for the first, 229.9 to 232.2 °C for the second.

First: N#CCN1CCC(CNc2ncc3c(n2)NC(=O)N(c2ccccc2Cl)C3)CC1 (as salt: hydrochloride) [Compound 2-22, 3-(2-chlorophenyl)-7-[(1-cyanomethylpiperidin-4-ylmethyl)amino]-3,4-dihydropyrimido[4,5-d]pyrimidin-2(1H)-one]
Second: O=C(O)CN1CCC(CNc2ncc3c(n2)NC(=O)N(c2ccccc2Cl)C3)CC1 (as salt: hydrochloride) [Compound 2-24, 3-(2-chlorophenyl)-7-[(1-hydroxycarbonylmethylpiperidin-4-ylmethyl)amino]-3,4-dihydropyrimido[4,5-d]pyrimidin-2(1H)-one]
The melting point of the first is lower: 207.2 to 207.7 °C for the first, 215 to 219 °C for the second.

Compared with CCOCC(COCC)N1C(=O)N(c2ccccc2Cl)Cc2cnc(N[C@H](C)CO)nc21 (as salt: hydrochloride) [Compound 3-21, (R)-3-(2-chlorophenyl)-7-[(2-hydroxy-1-methylethyl)amino]-1-(2-ethoxy-1-ethoxymethylethyl)-3,4-dihydropyrimido[4,5-d]pyrimidin-2(1H)-one], CN1C(=O)N(c2ccccc2Cl)Cc2cnc(NC(C)(C)C(O)CO)nc21 (stereo not drawn) (as salt: hydrochloride) [Compound 3-28, 3-(2-chlorophenyl)-7-(2,3-dihydroxy-1,1-dimethylpropylamino)-1-methyl-3,4-dihydropyrimido[4,5-d]pyrimidin-2(1H)-one] is higher in melting point: 169.7 to 175.1 °C for the first, 203.1 to 204.1 °C for the second.

Compared with CN1C(=O)N(c2ccccc2Cl)Cc2cnc(NC3(CO)CCCCC3)nc21 (as salt: hydrochloride) [Compound 3-43, 3-(2-chlorophenyl)-7-[(1-hydroxymethylcyclohexyl)amino]-1-methyl-3,4-dihydropyrimido[4,5-d]pyrimidin-2(1H)-one], CN1C(=O)N(c2ccccc2Cl)Cc2cnc(NC3CCC(=O)CC3)nc21 (as salt: hydrochloride) [Compound 3-46, 3-(2-chlorophenyl)-7-(4-oxo-cyclohexylamino)-1-methyl-3,4-dihydropyrimido[4,5-d]pyrimidin-2(1H)-one] is higher in melting point: 203.7 to 207.8 °C for the first, 233.4 to 236.3 °C for the second.

Compared with O=C1N(c2ccccc2Cl)Cc2cnc(N[C@H]3CC[C@H](O)CC3)nc2N1Cc1ccccc1 (as salt: hydrochloride) [Compound 3-48, 1-benzyl-3-(2-chlorophenyl)-7-(trans-4-hydroxycyclohexylamino)-3,4-dihydropyrimido[4,5-d]pyrimidin-2(1H)-one], O=C(O)CN1C(=O)N(c2ccccc2Cl)Cc2cnc(N[C@H]3CC[C@H](O)CC3)nc21 [Compound 3-53, 3-(2-chlorophenyl)-7-(trans-4-hydroxycyclohexylamino)-1-hydroxycarbonylmethyl-3,4-dihydropyrimido[4,5-d]pyrimidin-2(1H)-one] is higher in melting point: 218.5 to 221 °C for the first, 230 to 240 °C for the second.

First: Cc1ccccc1N1Cc2cnc(N[C@H](C)[C@@H](O)CO)nc2NC1=O (as salt: hydrochloride) [Compound 4-4, (R,R)-7-(2,3-dihydroxy-1-methylpropylamino)-3-ortho-tolyl-3,4-dihydropyrimido[4,5-d]pyrimidin-2(1H)-one]
Second: Cc1ccccc1N1Cc2cnc(N[C@H](C)[C@@H](O)CO)nc2N(C)C1=O [Compound 3-23, 7-((R,R)-2,3-dihydroxy-1-methylpropylamino)-3-ortho-tolyl-1-methyl-3,4-dihydropyrimido[4,5-d]pyrimidin-2(1H)-one]
The melting point of the first is higher: 161 to 172 °C for the first, 119.8 to 121.8 °C for the second.

First: O=C1Nc2nc(NCC3CCC(O)CC3)ncc2CN1c1ccccc1Cl (stereo not drawn) (as salt: hydrochloride) [Compound 4-17, 3-(2-chlorophenyl)-7-[(4-hydroxycyclohexylmethyl)amino]-3,4-dihydropyrimido[4,5-d]pyrimidin-2(1H)-one]
Second: NC(=O)O[C@H]1CC[C@H](Nc2ncc3c(n2)NC(=O)N(c2ccccc2Cl)C3)CC1 (as salt: hydrochloride) [Compound 4-21, 7-(trans-4-carbamoyloxycyclohexylamino)-3-(2-chlorophenyl)-3,4-dihydropyrimido[4,5-d]pyrimidin-2(1H)-one]
The melting point of the first is lower: 208.3 to 217.9 °C for the first, 267 to 267.6 °C for the second.

First: CNC(=O)O[C@H]1CC[C@H](Nc2ncc3c(n2)NC(=O)N(c2ccccc2Cl)C3)CC1 (as salt: hydrochloride) [Compound 4-22, 3-(2-chlorophenyl)-7-(trans-4-methylaminocarbonyloxycyclohexylamino)-3,4-dihydropyrimido[4,5-d]pyrimidin-2(1H)-one]
Second: CS(=O)(=O)N[C@H]1CC[C@H](Nc2ncc3c(n2)NC(=O)N(c2ccccc2Cl)C3)CC1 [Compound 4-28, 3-(2-chlorophenyl)-7-[trans-4-(methanesulfonylamino)cyclohexylamino]-3,4-dihydropyrimido[4,5-d]pyrimidin-2(1H)-one]
The melting point of the first is lower: 269 to 271 °C for the first, 292.8 to 293.2 °C for the second.

First: O=C1CCC(Nc2ncc3c(n2)NC(=O)N(c2ccccc2Cl)C3)CC1 (as salt: hydrochloride) [Compound 4-23, 3-(2-chlorophenyl)-7-(4-oxo-cyclohexylamino)-3,4-dihydropyrimido[4,5-d]pyrimidin-2(1H)-one]
Second: O=C1Nc2nc(NC3CCC4(CC3)OCCO4)ncc2CN1c1ccccc1Cl (as salt: hydrochloride) [Compound 4-24, 3-(2-chlorophenyl)-7-(1,4-dioxaspiro[4.5]dec-8-ylamino)-3,4-dihydropyrimido[4,5-d]pyrimidin-2(1H)-one]
The melting point of the first is higher: 204 to 210 °C for the first, 173.6 to 189.7 °C for the second.

First: COC(=O)CN1C(=O)N(c2ccccc2Cl)Cc2cnc(N[C@H]3CC[C@H](O)CC3)nc21 [Compound 3-49, 3-(2-chlorophenyl)-7-(trans-4-hydroxycyclohexylamino)-1-methoxycarbonylmethyl-3,4-dihydropyrimido[4,5-d]pyrimidin-2(1H)-one]
Second: O=C1N(c2ccccc2Cl)Cc2cnc(N[C@H]3CC[C@H](O)CC3)nc2N1CCO [Compound 3-56, 3-(2-chlorophenyl)-7-(trans-4-hydroxycyclohexylamino)-1-(2-hydroxyethyl)-3,4-dihydropyrimido[4,5-d]pyrimidin-2(1H)-one]
The melting point of the first is higher: 212 to 215 °C for the first, 96.6 to 122.8 °C for the second.

For N#CCN1C(=O)N(c2ccccc2Cl)Cc2cnc(N[C@H]3CC[C@H](O)CC3)nc21 [Compound 3-55, 3-(2-chlorophenyl)-7-(trans-4-hydroxycyclohexylamino)-1-cyanomethyl-3,4-dihydropyrimido[4,5-d]-pyrimidin-2(1H)-one], the melting point was 130.8 °C.

In the case of CC(=O)O[C@H]1CC[C@H](Nc2ncc3c(n2)NC(=O)N(c2ccccc2Cl)C3)CC1 (as salt: hydrochloride) [Compound 4-13, 7-(trans-4-acetyloxycyclohexylamino)-3-(2-chlorophenyl)-3,4-dihydropyrimido[4,5-d]pyrimidin-2(1H)-one], the melting point is reported as over 300 °C.
With COC(=O)O[C@H]1CC[C@H](Nc2ncc3c(n2)NC(=O)N(c2ccccc2Cl)C3)CC1 (as salt: hydrochloride) [Compound 4-20, 3-(2-chlorophenyl)-7-(trans-4-methoxycarbonyloxycyclohexylamino)-3,4-dihydropyrimido[4,5-d]pyrimidin-2(1H)-one] the melting point was over 260 °C.
With O=CO[C@H]1CC[C@H](Nc2ncc3c(n2)NC(=O)N(c2ccccc2Cl)C3)CC1 [Compound 4-15, 3-(2-chlorophenyl)-7-(trans-4-formyloxycyclohexylamino)-3,4-dihydropyrimido[4,5-d]pyrimidin-2(1H)-one] the melting point was over 300 °C.

— US6451804B1, “Heteroalkylamino-substituted bicyclic nitrogen heterocycles” (Syntex (U.S.A.) LLC, priority 1999, dated 2002)
